Measurements published in patent US20260355080A1, “COSMETIC COMPOSITION FOR PREVENTING OR AMELIORATING SKIN DISEASES, COMPRISING MORUS ALBA-DERIVED COMPOUND AS ACTIVE INGREDIENT” (DONGGUK UNIVERSITY INDUSTRY-ACADEMIC COOPERATION FOUNDATION, priority 2022, published 2026).

Legend:
Format in all cases: cell-based
[1] = MTT cytotoxicity assay in melanocytes; details: human, tested at 10, 50, and 100 μM, FIG. 1, read-out: treatment concentration up to which no cytotoxicity was shown
Description: (§1) Melanocytes used were isolated from normal adult skin tissues obtained through repeated cesarean section and circumcision. Dispase 2.4U (#295 825; Roche, Mannheim, Germany) was treated for 1 hour to separate the epidermis, and 0.05% trypsin was treated for 10 minutes to isolate melanocytes. Afterwards, the cells were suspended in Medium 254, and the bovine pituitary extract (BPE), fetal bovine serum (FBS), hydrocortisone, basic fibroblast growth factor (bFGF), bovine transferrin (BT), heparin, and phorbol 12-myristate13-acetate (PMA, Invitrogen) were added and cultured. The cells that had undergone the 3rd~5th passage culture were used in the experiment.
In order to identify cytotoxicity of the 136 candidate materials, MTT assays were performed. Melanocytes were treated with the candidate materials by concentration (10, 50, and 100 μM) for 48 hours, and the cell viability was measured to determine the concentration range at which no cytotoxicity of each candidate material is observed.

tyrosinase [2] = experiment: Western blot of intracellular tyrosinase expression in melanocytes (skin whitening effect); details: 10 μM M55 (other candidates at non-cytotoxic concentration), 48 hours, FIG. 2
Description: as §1
In order to identify the skin whitening effect of the 136 candidate materials, Western blot was performed. After treating melanocytes with the candidate material at a concentration at which no cytotoxicity was shown in the melanocytes identified in Example 1-2 for 48 hours, intracellular tyrosinase expression was measured. The experiment was repeated 4 times or more.

tyrosinase [3] = experiment: Western blot of tyrosinase expression in ARG2 overexpressing keratinocyte/melanocyte co-cultured cell model; details: 10 μM, 48 hours, P<0.05 significant, FIG. 3
Description: (§2) Keratinocytes were seeded in a culture container at 2×10^5/ml, after 24 hours, pCMV plasmids containing one of three genes [arginase 2 (ARG2, NCBI Gene ID: 384), cadherin 11 (CDH11, NCBI Gene: 1009), and guanine deaminase (GDA, NCBI Gene: 9615)] were transfected into cells using Lipofectamine 2000 to induce overexpression, and after 4 hours of culture with Dulbecco's Modified Essential Medium (DMEM) culture medium without supplements, 0.5×10^5/ml melanocytes were mixed with the keratinocyte culture medium containing supplements and co-cultured in the same culture container. After 24 hours, the keratinocyte culture medium without supplements was replaced, and after 5 hours, the normal melanocytes were treated with the 16 candidate materials for 48 hours. […]
(§3) In order to identify the skin whitening and anti-aging effects of 16 candidate materials in Example 1-2, for the skin whitening effect, each of the three types of cell models constructed in the Example 2-1 was treated with the 16 candidate materials at concentrations at which no cytotoxicity is shown in the melanocytes identified in Example 1-1 for 48 hours, and then Western blot was performed to measure the expression of tyrosinase. The experiment was repeated 4 times, and P<0.05 was determined to be significant. […] The experiment was repeated 4 times, and P<0.05 was determined to be significant.

tyrosinase [4] = experiment: Western blot of tyrosinase expression in CDH11 overexpressing keratinocyte/melanocyte co-cultured cell model; details: 10 μM, 48 hours, FIG. 3
Description: as §2, §3

tyrosinase [5] = experiment: Western blot of tyrosinase expression in control gene overexpressing (pCMV) keratinocyte/melanocyte co-cultured cell model; details: control gene overexpressing co-cultured cell model (pCMV, of the CDH11 experiment), 10 μM, 48 hours; FIG. 3
Description: as §2, §3

tyrosinase [6] = experiment: Western blot of tyrosinase expression in GDA overexpressing keratinocyte/melanocyte co-cultured cell model; details: 10 μM, 48 hours, P<0.05 significant, FIG. 3
Description: as §2, §3

p16 (Ink4a) = experiment: Western blot of p16 (Ink4a) expression in keratinocytes (anti-aging effect); details: 10 μM, 48 hours, P<0.05 significant, FIG. 4
Description: Keratinocytes used were isolated from normal adult skin tissues obtained through repeated cesarean section and circumcision. The cells were dispensed into EpiLife Medium, and bovine pituitary extract (BPE), bovine insulin (BI), hydrocortisone, human epidermal growth factor (EGF), and bovine transferrin (BT) were added and cultured. The cells that had undergone the 3rd~5th passage culture were used in the experiment. The pituitary extract, bovine insulin, hydrocortisone, human epidermal growth factor, and bovine transferrin were used by purchasing from Invitrogen.
In order to identify the skin whitening and anti-aging effects of 16 candidate materials in Example 1-2, for the skin whitening effect, each of the three types of cell models constructed in the Example 2-1 was treated with the 16 candidate materials at concentrations at which no cytotoxicity is shown in the melanocytes identified in Example 1-1 for 48 hours, and then Western blot was performed to measure the expression of tyrosinase. The experiment was repeated 4 times, and P<0.05 was determined to be significant. In addition, for analysis on the anti-aging effect, the keratinocytes were treated with the above 16 candidate materials for 48 hours each, and then Western blot was performed to measure the expression of p16 (Ink4a). The experiment was repeated 4 times, and P<0.05 was determined to be significant.

tyrosinase; p16 (Ink4a) = experiment: Combined analysis of skin whitening (tyrosinase expression, co-cultured cell models) and anti-aging (p16 expression, keratinocytes) effects; details: 16 candidate materials tested, 48 hours
Description: as §2, §3

## COC(=O)C[C@@H](O)CC(=O)O [M55]
[1]
  MNTC at 48 h: ≥ 10 µM
Tyrosinase [2]
  tyrosinase expression compared to the control group: significantly reduced
Tyrosinase [3]
  tyrosinase expression compared to the control group: significant decrease
Tyrosinase [4]
  tyrosinase expression compared to the control group: reduced
Tyrosinase [5]
  tyrosinase expression compared to the control group: increased
Tyrosinase [6]
  tyrosinase expression compared to the control group: significant decrease
p16 (Ink4a)
  p16 (Ink4a) expression compared to the control group: significantly reduced
tyrosinase; p16 (Ink4a)
  skin whitening and anti-aging effects shown together: skin whitening and anti-aging effects were shown together
